Reference: article PMC3196794 (Chemical research in toxicology, 2011)
Where two headings read alike, the source gives them in different places.

What was measured:
[1] = molecular target: T1, hSULT2A1 (Homo sapiens, UniProt Q06520); experiment: Inhibition of the sulfation of DHEA catalyzed by hSULT2A1; assay type: biochemical
T1 sequence (Q06520 1-285): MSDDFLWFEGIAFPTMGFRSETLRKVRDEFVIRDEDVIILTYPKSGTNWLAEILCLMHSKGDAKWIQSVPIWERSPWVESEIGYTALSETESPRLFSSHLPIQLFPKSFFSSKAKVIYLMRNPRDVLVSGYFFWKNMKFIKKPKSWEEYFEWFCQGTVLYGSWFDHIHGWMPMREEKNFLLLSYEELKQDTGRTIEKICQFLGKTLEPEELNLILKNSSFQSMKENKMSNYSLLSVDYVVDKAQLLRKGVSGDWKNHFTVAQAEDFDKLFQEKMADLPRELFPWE

[2] = molecular target: T1, hSULT2A1; experiment: CoMFA 3D-QSAR model for inhibition of hSULT2A1 by OHPCBs; conditions: for Difference between the experimental and the predicted values for pIC50: CoMFA Model 1
[3] = molecular target: T1, hSULT2A1; experiment: OHPCBs as substrates for hSULT2A1; assay type: biochemical; conditions: 200 μM PAPS; fit to substrate inhibition equation
[4] = pH 7
[5] = molecular target: T1, hSULT2A1; conditions: 200 μM PAPS; cited from earlier work
[6] = IC50 (inhibition of the sulfation of DHEA catalyzed by hSULT2A1), 1 μM [3H]DHEA, 200 μM PAPS, pH 7.0, 37°C, 10 min, mean ± standard error of the fit
[7] = Actual pIC50, -log IC50 (M), Table 3

SMILES	IC50 [1, 6] [M]	Difference between the experimental and the predicted values for pIC50 [2]	IC50 [1, 7] [M]	Kis (substrate inhibition constant) [3] [µM]	also measured
Oc1ccc(-c2ccc(Cl)cc2)cc1O [3′,4′-diOHPCB 3, 3′, 4′-dihydroxy-4-monochlorobiphenyl]	9.6e-05 ± 1.2e-06	0.072	–	–	IC50 ([1]; IC50 (experimental, Table 3), experimental values used for CoMFA Model 1): 9.57e-05 M
Oc1ccc(-c2cccc(Cl)c2Cl)cc1O [3′,4′-diOHPCB 5, 3′, 4′-dihydroxy-2,3-dichlorobiphenyl]	1.6e-05 ± 1.1e-06	0.054	1.59e-05	–	–
Oc1ccc(-c2ccc(Cl)cc2)c(Cl)c1 [4-OHPCB 8, 4-hydroxy-2, 4′-dichlorobiphenyl]	1e-05 ± 1.2e-06	0.303	1e-05	65.4 ± 73.8	–
Oc1ccc(-c2cccc(Cl)c2)cc1Cl [4-OHPCB 11, 4-hydroxy-3, 3′-dichlorobiphenyl]	1.4e-05 ± 1.2e-06	0.011	1.4e-05	51.9 ± 65.7	–
Oc1c(Cl)cc(-c2ccccc2)cc1Cl [4-OHPCB 14, 4-hydroxy-3,5-dichlorobiphenyl]	1.3e-05 ± 1.1e-06	0.196	1.3e-05	220 ± 56	IC50 ([1]; Actual IC50, Table 4): 1.3e-05 M; fold difference between the predicted and the actual IC50 values ([2]; CoMFA Model 2): 3.8 fold
Oc1c(Cl)cc(-c2ccccc2Cl)cc1Cl [4-OHPCB 34, 4-hydroxy-2′, 3,5-trichlorobiphenyl]	–	0.199	6e-07	47.4 ± 16.2	fold decrease in IC50 compared with 4-OHPCB 36 ([1]; chlorine in the non-phenolic ring changed from meta to ortho): approximately 7 fold
Oc1c(Cl)cc(-c2cccc(Cl)c2)cc1Cl [4-OHPCB 36, 4-hydroxy-3, 3′, 5-trichlorobiphenyl]	4.4e-06 ± 1.2e-06	0.088	4.4e-06	39.4 ± 23.1	–
Oc1ccc(-c2ccc(Cl)cc2)cc1 [4′-OHPCB 3, 4′-hydroxy-4-monochlorobiphenyl]	2.8e-05 ± 1.1e-06	0.026	2.81e-05	–	–
Oc1ccc(-c2ccccc2Cl)cc1Cl [4′-OHPCB 6, 4′-hydroxy-2, 3′-dichlorobiphenyl]	9.8e-06 ± 1.1e-06	0.108	9.79e-06	–	–
Oc1ccc(-c2cc(Cl)ccc2Cl)cc1 [4′-OHPCB 9, 4′-hydroxy-2,5-dichlorobiphenyl]	7.5e-06 ± 1.1e-06	0.011	7.5e-06	–	–
Oc1ccc(-c2ccc(Cl)c(Cl)c2)cc1 [4′-OHPCB 12, 4′-hydroxy-3,4-dichlorobiphenyl]	1.6e-05 ± 1.1e-06	0.039	1.58e-05	–	IC50 ([1]; Actual IC50, Table 4): 1.58e-05 M
Oc1ccc(-c2ccc(Cl)cc2Cl)cc1Cl [4′-OHPCB 25, 4′-hydroxy-2, 3′, 4-trichlorobiphenyl]	4.4e-06 ± 1.3e-06	0.084	4.4e-06	–	IC50 ([1]; Actual IC50, Table 4): 4.4e-06 M; solubility [4]: low solubility
Oc1ccc(-c2ccc(Cl)c(Cl)c2)c(Cl)c1 [4′-OHPCB 33, 4′-hydroxy-2′, 3,4-trichlorobiphenyl]	2.5e-06 ± 1.1e-06	0.099	2.5e-06	217 ± 189	–
Oc1c(Cl)cc(-c2ccc(Cl)cc2Cl)cc1Cl [4′-OHPCB 68, 4′-hydroxy-2, 3′, 4, 5′-tetrachlorobiphenyl]	–	0.056	8e-07	–	–
Oc1ccc(Cl)cc1-c1ccc(Cl)c(Cl)c1 [6′-OHPCB 35, 6′-hydroxy-3, 3′-4 trichlorobiphenyl]	–	0.088	–	–	Actual pIC50 ([1]; -log IC50 (M), Table 3): 4.810; IC50 ([1]; read-out: IC50 (inhibition of the sulfation of DHEA catalyzed by hSULT2A1), 1 μM [3H]DHEA, 200 μM PAPS, pH 7.0, 37°C, 10 min, mean ± standard error of the fit): 1.6e-05 ± 1.1e-06 M
C[C@]12CC[C@H](O)CC1=CC[C@@H]1[C@@H]2CC[C@]2(C)C(=O)CC[C@@H]12 [DHEA, dehydroepiandrosterone]	–	–	–	–	Kis with DHEA as substrate [5]: 8 ± 3 µM; Vmax with DHEA as substrate [5]: 245 ± 40 nmol/min/mg
